Test results taken from US20130172847A1, “Compositions for Providing Vitamin D Year Round and Uses Thereof” (priority 2002, published 2013).

Assays:
[1] = Conversion of 7-DHC and/or T3 to PreD3 in ethanol under winter natural sunlight; type: physicochemical
Excerpt: (§1) In contrast, compositions comprising increasing amounts of T3 produce increasing amounts of PreD3 when exposed to winter sunlight.
(§2) Conversion of 7-Dehydrocholesterol (7-DHC) and/or Tachysterol (T3) to Previtamin D3 (PreD3)

[2] = Conversion of 7-DHC and/or T3 to PreD3 in cream under winter natural sunlight; type: physicochemical; details: Cream (1 g); natural sunlight 5-60 min; start 7-DHC 1.0 μg, T3 0 μg
Excerpt: as §1, §2

[3] = human skin or organic solvent exposed to 295 nm radiation; cited from earlier work
[4] = Conversion of 7-DHC and/or T3 to PreD3 in cream under artificial UVB light (simulates summer sunlight); type: physicochemical; details: for % Yield / PreD3 Formed: Cream (1 g), artificial UVB 2 min
Excerpt: as §1, §2

[5] = cited from earlier work
[6] = Ethanol (1 ml), natural sunlight 90 min, start 7-DHC 0 μg, T3 10 μg

SMILES | % Yield ([1]; Ethanol (1 ml), natural sunlight 90 min, start 7-DHC 10 μg, T3 0 μg) [%] | conversion to PreD3 when exposed to winter sunlight (in words) ([1]; winter natural sunlight, summary of the table) | % Yield [2] [%] | provitamin D3 converted to previtamin D3 [3] | % Yield ([4]; start 7-DHC 1.0 μg, T3 0 μg) [%] | PreD3 Formed ([4]; start 7-DHC 1.0 μg, T3 0 μg) [µg] | conversion to PreD3 when exposed to artificial UVB light (in words) [4] | portion of tachysterol among photoproducts ([5]; exposed to light in the range of 254 nm) | previtamin D3 produced ([5]; irradiated at 0° C. with 254 nm light, thereafter (0° C.) with 350 nm light) [%] | % Yield [1, 6] [%] | PreD3 Formed [1, 6] [µg] | % Yield ([4]; start 7-DHC 0 μg, T3 1 μg) [%] | PreD3 Formed ([4]; start 7-DHC 0 μg, T3 1 μg) [µg]
CC(C)CCC[C@@H](C)[C@H]1CC[C@H]2C3=CC=C4C[C@@H](O)CC[C@]4(C)[C@H]3CC[C@]12C [7-DHC, 7-Dehydrocholesterol] | 0 | inefficiently converted to PreD3 | 0 | up to 65% | 26 | 0.26 | converted to PreD3 | about 75% | ≤ 83 | – | – | – | –
CC1=C(/C=C\C2=CCC[C@]3(C)[C@@H]([C@H](C)CCCC(C)C)CC[C@@H]23)C[C@@H](O)CC1 [T3, Tachysterol] | – | – | – | – | – | – | converted to PreD3 | – | – | 77 | 7.1 | 52 | 0.52
